US10543198B2 (Celgene Quanticel Research, Inc., priority 2014, dated 2020)

Tests used:
THP-1 (AML) cells = assay: LSD1 CD11b Cellular Assay (flow cytometry); type: cell-based; settings: Homo sapiens, 96 h; CD11b expression in THP-1 cells, 4 days incubation
Procedure: To analyze LSD1 inhibitor efficacy in cells, a CD11b flow cytometry assay was performed. LSD1 inhibition induces CD11b expression in THP-1 (AML) cells which can be measured by flow cytometry. […] LSD1 test compounds were serially diluted in DMSO. The dilutions were added to each well accordingly to a final concentration of 0.2% DMSO. The cells were incubated at 37 degrees Celsius in 5% CO2 for 4 days. 250 μL of each well was transferred to a well in a 96 well round bottom plate. The plate was centrifuged at 1200 rpm at 4 degrees Celsius in a Beckman Coulter Alegra 6KR centrifuge for 5 minutes. The media was removed leaving the cells at the bottom of the wells. The cells were washed in 100 μL cold HBSS (Hank's Balanced Salt Solution) plus 2% BSA (Bovine Serum Albumin) solution and centrifuged at 1200 rpm at 4 degrees Celsius for 5 minutes. The wash was removed. […] The cells were centrifuged and washed two times in 100 μl HBSS plus 2% BSA. After the final spin the cells were resuspended in 100 μL HBSS plus 2% BSA containing 1 ug/mL DAPI (4′,6-diamidino-2-phenylindole). The cells were then analyzed by flow cytometry in a BD FACSAria machine. Cells were analyzed for CD11b expression. The percent of CD11b expressing cells for each inhibitor concentration was used to determine an IC50 curve for each compound analyzed.

full-length human LSD1 = full-length human LSD1 (Homo sapiens (Human), UniProt O60341); assay: In Vitro Enzyme Inhibition Assay - LSD-1 (TR-FRET); type: biochemical; settings: 0.1 nM LSD1, H3K4me1-biotin peptide
Procedure: This assay determines the ability of a test compound to inhibit LSD1 demethylase activity.
The enzymatic assay of LSD1 activity is based on Time Resolved-Fluorescence Resonance Energy Transfer (TR-FRET) detection.
The ability of the compounds disclosed herein to inhibit LSD1 activity was quantified and the respective IC50 value was determined.

| SMILES | IC50 (THP-1 (AML) cells) [nM] | IC50 (full-length human LSD1) [nM] |
| --- | --- | --- |
| CNC1CCN(c2cnc(C#CC3(O)CCCC3)c(-c3ccc(C#N)c(F)c3)n2)CC1 [Example 64, 2-fluoro-4-[3-[2-(1-hydroxycyclopentyl)ethynyl]-6-[4-(methylamino)piperidin-1-yl]pyrazin-2-yl]benzonitrile] | < 100 | < 100 |
| Cn1ccc2cc(-c3ncc(N4CCC(N)CC4)nc3-c3ccc(C#N)c(F)c3)cnc21 [Example 55, 4-[6-(4-aminopiperidin-1-yl)-3-{1-methyl-1H-pyrrolo[2,3-b]pyridin-5-yl}pyrazin-2-yl]-2-fluorobenzonitrile] | < 100 | < 100 |
| CNC1CCN(c2cnc(-c3ccc4nn(C)cc4c3)c(-c3ccc(C#N)c(F)c3)n2)CC1 [Example 50, 2-fluoro-4-[3-(2-methyl-2H-indazol-5-yl)-6-[4-(methylamino)piperidin-1-yl]pyrazin-2-yl]benzonitrile] | < 100 | < 100 |

Now from value to compound:

| IC50 (THP-1 (AML) cells) [nM] | IC50 (full-length human LSD1) [nM] | SMILES |
| --- | --- | --- |
| < 100 | < 100 | CN(C)C1CCN(c2cnc(-c3ccc4nn(C)cc4c3)c(-c3ccc(C#N)c(F)c3)n2)CC1 [Example 60, 4-{6-[4-(dimethylamino)piperidyl]-3-(2-methyl(2H-indazol-5-yl))pyrazin-2-yl}-2-fluorobenzenecarbonitrile] |
| < 100 | < 100 | Cn1cc2cc(-c3ncc(N4CCC(N)CC4)nc3-c3ccc(C#N)c(F)c3)ccc2n1 [Example 49, 4-[6-(4-aminopiperidin-1-yl)-3-(2-methyl-2H-indazol-5-yl)pyrazin-2-yl]-2-fluorobenzonitrile] |
